Active and inactive are the calls of the source. The rule behind the calls is not given here.
How the values were obtained:
Protein ENL [1] = biological target: T1, Protein ENL (Homo sapiens, UniProt Q03111); test: Binding affinity to C-terminal ENL YEATS domain (unknown origin) (M1 to A148 residues) assessed as dissociation constant by ITC assay
T1 sequence (Q03111 whole entry): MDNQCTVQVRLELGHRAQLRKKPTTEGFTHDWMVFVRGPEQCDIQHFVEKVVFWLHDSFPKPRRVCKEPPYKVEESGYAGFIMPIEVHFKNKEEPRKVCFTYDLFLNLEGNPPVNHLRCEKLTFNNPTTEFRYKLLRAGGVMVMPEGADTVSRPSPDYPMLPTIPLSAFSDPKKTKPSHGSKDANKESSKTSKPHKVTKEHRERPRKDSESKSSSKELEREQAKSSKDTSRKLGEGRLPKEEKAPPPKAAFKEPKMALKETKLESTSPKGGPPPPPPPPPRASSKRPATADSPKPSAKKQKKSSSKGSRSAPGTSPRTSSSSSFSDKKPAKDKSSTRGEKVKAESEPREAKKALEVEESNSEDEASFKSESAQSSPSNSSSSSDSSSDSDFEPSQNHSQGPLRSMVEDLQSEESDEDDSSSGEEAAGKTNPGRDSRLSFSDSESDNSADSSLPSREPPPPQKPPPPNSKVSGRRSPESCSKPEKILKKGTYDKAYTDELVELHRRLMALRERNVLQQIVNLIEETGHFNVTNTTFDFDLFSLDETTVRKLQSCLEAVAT

Protein ENL [2] = biological target: T1, Protein ENL; test: Inhibition of C-terminal ENL YEATS domain (unknown origin) (M1 to A148 residues) using biotinylated peptide as substrate by alpha screen assay
Protein ENL [3] = biological target: T1, Protein ENL; test: Inhibition of C-terminal 6xHis-tagged ENL YEATS domain (1 to 148 residues) (unknown origin) expressed in Escherichia coli BL21(DE3) cells using biotin-H3K27ace as substrate incubated for 45 mins by alpha screen assay
[4] = biological target: T2, Protein ENL (Homo sapiens) (UniProt Q03111); conditions: dose 333.0 nM, time 45.0 min
T2 sequence (whole entry): T1 sequence (Q03111 whole entry)

[5] = biological target: T2, Protein ENL (Homo sapiens); conditions: dose 111.0 nM, time 45.0 min
MOLM-13 [6] = test: Antiproliferative activity against human MOLM-13 cells assessed as inhibition of cell growth measured after 72 hrs by Cell Titer-Glo luminescent assay; assay type: functional, cell-based; conditions: MOLM-13, 72 h
MV4-11 = test: cells; conditions: Homo sapiens, MV4-11, 72 h
Description: Antiproliferative activity against human MV4-11 cells assessed as inhibition of cell growth measured after 72 hrs by Cell Titer-Glo luminescent assay

Protein ENL [7] = biological target: T1, Protein ENL; test: Binding affinity to ENL YEATS domain (unknown origin) assessed as dissociation constant by ITC assay
MOLM-13 [8] = test: Potency index, ratio of SGC-iMLLT IC50 to test compound IC50 for antiproliferative activity against human MOLM-13 cells; assay type: functional
[9] = biological target: T2, Protein ENL (Homo sapiens); conditions: dose 25.0 µM
[10] = biological target: T2, Protein ENL (Homo sapiens); conditions: dose 50.0 µM
[11] = biological target: T2, Protein ENL (Homo sapiens); conditions: dose 12.5 µM
Description: Binding affinity to C-terminal 6xHis-tagged ENL YEATS domain (1 to 148 residues) (unknown origin) expressed in Escherichia coli BL21(DE3) cells assessed as thermal stability by measuring change in melting temperature at 12.5 uM by SYPRO dye-based thermal shift assay

[12] = biological target: T2, Protein ENL (Homo sapiens); conditions: dose 6.3 µM
Description: Binding affinity to C-terminal 6xHis-tagged ENL YEATS domain (1 to 148 residues) (unknown origin) expressed in Escherichia coli BL21(DE3) cells assessed as thermal stability by measuring change in melting temperature at 6.3 uM by SYPRO dye-based thermal shift assay

[13] = AUC (0 to t) in BALB/c mouse at 30 mg/kg, po measured after 0.5 to 24 hrs by LC-MS/MS assay; assay type: ADME, organism-based; design: dose 30 mg/kg, time 0.5-24 hrs, route po; conditions: in vivo
[14] = AUC (0 to infinity) in BALB/c mouse at 30 mg/kg, po measured after 0.5 to 24 hrs by LC-MS/MS assay; assay type: ADME, organism-based; design: time lower 0.5 hrs, dose 30 mg/kg, time upper 24 hrs, route po; conditions: in vivo
[15] = Cmax in BALB/c mouse at 30 mg/kg, po measured after 0.5 to 24 hrs by LC-MS/MS assay; assay type: ADME, organism-based; design: dose 30 mg/kg, time 0.5-24 hrs, route po; conditions: in vivo
[16] = Half life in BALB/c mouse at 30 mg/kg, po measured after 0.5 to 24 hrs by LC-MS/MS assay; assay type: ADME, organism-based; conditions: in vivo, time 0.5-24 hrs
[17] = MRT (0 to infinity) in BALB/c mouse at 30 mg/kg, po measured after 0.5 to 24 hrs by LC-MS/MS assay; assay type: ADME, organism-based; conditions: in vivo, time 0.5-24 hrs
[18] = Tmax in BALB/c mouse at 30 mg/kg, po measured after 0.5 to 24 hrs by LC-MS/MS assay; assay type: ADME, organism-based; conditions: in vivo, time 0.5-24 hrs
[19] = biological target: YEATS domain-containing protein 4 (Homo sapiens) (UniProt O95619); test: Binding affinity recombinant GAS41 YEATS domain (15 to 159 residues) (unknown origin) expressed in Escherichia coli BL21(DE3) cells by SPR assay
Sequence of YEATS domain-containing protein 4 (Homo sapiens) (O95619 whole entry, the tested form may be a part): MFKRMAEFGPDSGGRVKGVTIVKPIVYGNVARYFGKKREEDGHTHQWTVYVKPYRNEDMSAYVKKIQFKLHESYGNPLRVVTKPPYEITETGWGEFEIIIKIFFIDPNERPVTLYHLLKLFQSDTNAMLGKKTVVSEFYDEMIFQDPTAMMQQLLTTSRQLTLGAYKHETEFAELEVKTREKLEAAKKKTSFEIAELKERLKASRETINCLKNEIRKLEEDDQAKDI

Protein ENL [20] = biological target: T1, Protein ENL; test: Binding affinity to C-terminal 6xHis-tagged ENL YEATS domain (1 to 148 residues) (unknown origin) expressed in Escherichia coli BL21(DE3) cells assessed as dissociation constant by SPR analysis
[21] = biological target: YEATS domain-containing protein 4 (Homo sapiens) (UniProt O95619); test: Binding affinity recombinant GAS41 YEATS domain (15 to 159 residues) (unknown origin) assessed as thermal stability
[22] = Downregulation of MYC mRNA level in human MOLM-13 cells at 5 uM incubated for 72 hrs by RT-PCR method relative to control; assay type: functional
[23] = Downregulation of MYC gene expression in human MOLM-13 cells assessed as decrease in fold change at 5 uM for 72 hrs by RT-PCR method relative to JQ-1; assay type: functional
[24] = Cytotoxicity against HUVEC-C incubated for 72 hrs by Cell Titer-Glo luminescent assay; assay type: toxicity, cell-based; conditions: human
MRC5 = test: Cytotoxicity against human MRC5 cells incubated for 72 hrs by Cell Titer-Glo luminescent assay; assay type: toxicity, cell-based; conditions: mrc5, 72 h
[25] = Downregulation of MYC gene expression in human MOLM-13 cells assessed as fold increase at 5 uM incubated for 72 hrs in presence of JQ-1 by RT-PCR method; assay type: functional

SMILES: COC(=O)c1ccc(C(=O)Nc2ccc3[nH]c(CN4CCCCC4)nc3c2)cc1
- Kd (Protein ENL [1]): 754 nM
- IC50 (Protein ENL [2]): 1600 nM

SMILES: CCn1cc2cc(C(=O)Nc3ccc4[nH]c(CN5CCC[C@@H]5C)nc4c3)ccc2n1
- IC50 (Protein ENL [3]): 36.7 nM
- inhibition [4]: 99.7%
- inhibition [5]: 82.4%

SMILES: Cc1noc2ccc(C(=O)Nc3ccc4[nH]c(CN5CCC[C@@H]5C)nc4c3)cc12
- IC50 (Protein ENL [3]): 48.8 nM
- inhibition [4]: 99.3%
- inhibition [5]: 87.3%

SMILES: C[C@H]1CCCN1Cc1nc2cc(NC(=O)c3ccc4c(cnn4CCNC(=O)Nc4cccc(F)c4)c3)ccc2[nH]1
- IC50 (Protein ENL [3]): 46 nM
- inhibition [4]: 97.8%
- inhibition [5]: 67.6%

SMILES: C[C@H]1CCCN1Cc1nc2cc(NC(=O)N3C(CO)C(O)C(O)C3CO)ccc2[nH]1 (stereo partly specified)
- IC50 (Protein ENL [3]): 22 nM
- inhibition [4]: 98.5%
- inhibition [5]: 79.5%
- IC50 (MOLM-13 [6]): > 100000 nM
- IC50 (MV4-11): > 100000 nM

SMILES: C[C@@H]1NC(=O)[C@H]([C@H](C)O)NC(=O)[C@@H](NC(=O)OCc2ccccc2)CCCCNC(=N)NCCC[C@H](C(=O)N[C@@H](CCCCNC(=O)c2cnco2)C(N)=O)NC1=O
- Kd (Protein ENL [7]): 14100 nM

SMILES: C[C@H]1CCCN1Cc1nc2cc(NC(=O)c3ccc4nn(C)cc4c3)ccc2[nH]1
- IC50 (Protein ENL [3]): 77 nM
- inhibition [4]: 99.6%
- inhibition [5]: 86.8%

SMILES: C[C@H]1CCCN1Cc1nc2cc(NC(=O)c3ccc4nn(C5CCCC5)cc4c3)ccc2[nH]1
- IC50 (Protein ENL [3]): 70.2 nM
- inhibition [4]: 96.1%
- inhibition [5]: 51%

SMILES: C[C@H]1CCCN1Cc1nc2cc(NC(=O)c3ccc4c(cnn4CCN4CCOCC4)c3)ccc2[nH]1
- Ratio IC50 (MOLM-13 [8]): 2
- ΔTm [9]: 2 °C
- IC50 (Protein ENL [3]): 14.5 nM
- ΔTm [10]: 3.5 °C
- inhibition [4]: 99.9%
- inhibition [5]: 98.3%
- ΔTm [11]: 1.3 °C
- IC50 (MOLM-13 [6]): 39600 nM
- ΔTm [12]: 0.8 °C

SMILES: Cc1noc2cc(C(=O)Nc3ccc4[nH]c(CN5CCC[C@@H]5C)nc4c3)ccc12
- Ratio IC50 (MOLM-13 [8]): 2
- ΔTm [9]: 3.9 °C
- IC50 (Protein ENL [3]): 10.7 nM
- ΔTm [10]: 4.9 °C
- inhibition [4]: 99.9%
- inhibition [5]: 99.1%
- ΔTm [11]: 2.8 °C
- IC50 (MOLM-13 [6]): 37900 nM
- ΔTm [12]: 1.8 °C
- IC50 (MV4-11): 51400 nM

SMILES: C[C@H]1CCCN1Cc1nc2cc(NC(=O)c3ccc4c(cnn4CCN)c3)ccc2[nH]1
- IC50 (Protein ENL [3]): 28.2 nM
- inhibition [4]: 100%
- inhibition [5]: 100%

SMILES: C[C@H]1CCCN1Cc1nc2cc(NC(=O)c3ccc4nn(CCNC(=O)OC(C)(C)C)cc4c3)ccc2[nH]1
- IC50 (Protein ENL [3]): 37.9 nM
- inhibition [4]: 99.1%
- inhibition [5]: 56%

SMILES: C[C@H]1CCCN1Cc1nc2cc(NC(=O)c3ccc4c(cnn4C)c3)ccc2[nH]1
- AUC(0-t) [13]: 59.8 ng·h/mL
- ΔTm [9]: 3.1 °C
- AUC(0-inf) [14]: 61 ng·h/mL
- ΔTm [10]: 4.3 °C
- inhibition [4]: 99.7%
- Cmax [15]: 33.6 ng/mL
- inhibition [5]: 99.8%
- ΔTm [11]: 2.2 °C
- IC50 (MOLM-13 [6]): 74700 nM
- half-life [16]: 30 min
- ΔTm [12]: 1.4 °C
- IC50 (MV4-11): 35000 nM
- MRT inf [17]: 60 min
- Tmax [18]: 30 min

SMILES: C[C@H]1CCCN1Cc1nc2cc(NC(=O)c3ccc4c(c3)c3ccccc3c(=O)n4C)ccc2[nH]1
- Activity [19]: inactive
- Ratio IC50 (MOLM-13 [8]): 9
- AUC(0-t) [13]: 257 ng·h/mL
- ΔTm [9]: 4.3 °C
- AUC(0-inf) [14]: 272 ng·h/mL
- Kd (Protein ENL [20]): 17 nM
- IC50 (Protein ENL [3]): 15.4 nM
- Activity [21]: inactive
- Activity [22]: 50%
- ΔTm [10]: 5.5 °C
- fold change (FC) [23]: <2.5
- inhibition [4]: 100%
- Activity [24]: Non-Toxic
- Cmax [15]: 71.8 ng/mL
- Activity (MRC5): Non-Toxic
- inhibition [5]: 99.6%
- ΔTm [11]: 3.3 °C
- IC50 (MOLM-13 [6]): 8300 nM
- half-life [16]: 312 min
- ΔTm [12]: 1.9 °C
- fold change (FC) [25]: >5
- IC50 (MV4-11): 4800 nM
- MRT inf [17]: 330 min
- Tmax [18]: 30 min

— ChEMBL document CHEMBL5321209, “Design, synthesis of novel benzimidazole derivatives as ENL inhibitors suppressing leukemia cells viability via downregulating the expression of MYC” (Eur J Med Chem, 2023)
